# Measured values as given in PubChem BioAssay (NCI).
# Several values for one entry are separate records, joined by “and”; a condition that tells them apart may be missing. Equal entries are not always repeated.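 Five concentrations, 48 hours, 96-well plates. At the GI50, growth is halved. TGI: total growth inhibition.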
# Columns and labels:
# Assay in all cases: growth of human tumour cells (NCI), 48 h
# [1] = test system: MDA-MB-231 breast
# [2] = test system: HCT-15 colon
# [3] = test system: EKVX NSCLC
# [4] = test system: MOLT-4 leukemia
# [5] = test system: SK-MEL-5 melanoma
# [6] = test system: SR leukemia
# [7] = test system: T-47D breast
# [8] = test system: NCI-H460 lung
# [9] = test system: HCC-2998 colon
# [10] = test system: HS 578T breast
# [11] = test system: NCI-H23 lung
# [12] = test system: SNB-75 CNS
SMILES,TGI [1],TGI [2],TGI [3],TGI [4],TGI [5],TGI [6],TGI [7],TGI [8],TGI [9],TGI [10],TGI [11],TGI [12],GI50 [1],GI50 [6]
CC1=C(C(=O)NNC(=O)C[N+](C)(C)C)CC(C(=O)NNC(=O)C[N+](C)(C)C)=C(C)N1,> 100 µM,> 100 µM,> 100 µM,> 100 µM,> 100 µM,> 100 µM,> 100 µM,> 100 µM,> 100 µM,> 100 µM,> 100 µM,–,–,–
Nc1nccc(NCC2(CO)CC(CCc3ccccc3)C2)n1 (stereo not given),48.9 µM,36.1 µM,46.9 µM,41.7 µM,16.9 µM,52.6 µM,27.6 µM,28.4 µM,35.9 µM,52.9 µM,41.4 µM,40.5 µM,–,–
COc1ccc(NC(=S)c2ccc([N+](=O)[O-])o2)cc1,6.35 µM,3.56 µM,7.78 µM,13.9 µM,13.1 µM,8.63 µM,17.3 µM,5.72 µM,3 µM,> 43.1 µM,5.52 µM,14.9 µM,–,–
CN(CC(=O)Nc1ccccc1C(=O)O)c1ccccc1,> 100 µM,> 100 µM,> 100 µM,> 100 µM,> 100 µM,> 100 µM,> 100 µM,> 100 µM,> 100 µM,> 100 µM,> 100 µM,> 100 µM,–,–
NS(=O)(=O)c1c(O)c2ccccc2oc1=O,> 100 µM,–,> 100 µM,> 100 µM,> 100 µM,> 100 µM,> 100 µM,> 100 µM,> 100 µM,> 100 µM,> 100 µM,> 100 µM,–,–
Cc1cnc2[nH]c(-c3cccc4ccccc34)cc(=O)c2c1,–,0.935 µM,> 100 µM,> 100 µM,–,> 100 µM,> 100 µM,> 100 µM,0.029 µM and 0.0576 µM,> 100 µM,> 100 µM,–,0.0119 µM,–
CCCCCC(=O)OC[n+]1cccc(-c2c(COC(=O)NC(C)C)c(COC(=O)NC(C)C)c3n2CCC3)c1,> 100 µM,> 100 µM,> 100 µM,> 71.1 µM,> 100 µM,> 73.8 µM,> 100 µM,> 100 µM,> 100 µM,> 100 µM,> 100 µM,> 100 µM,–,–
CN(/N=C/c1ccccn1)C1=NCCN1,> 100 µM,> 100 µM,> 100 µM,> 100 µM,> 100 µM,> 100 µM,> 100 µM,> 100 µM,> 100 µM,> 100 µM,> 100 µM,> 100 µM,–,–
CC(=O)Oc1ccc(-c2nnc(-c3ccc(OC(C)=O)cc3)nn2)cc1,> 100 µM,> 100 µM,> 100 µM,> 100 µM,> 100 µM,88.1 µM,> 100 µM,> 100 µM,–,> 100 µM,> 100 µM,> 100 µM,–,–
NC(CCC(=O)O)C(=O)NC(Cc1ccc(N(CCCl)CCCl)cc1)C(=O)O (stereo not given),> 100 µM,> 100 µM,> 100 µM,> 100 µM,> 100 µM,> 100 µM,> 100 µM,> 100 µM,> 100 µM,> 100 µM,> 100 µM,> 100 µM,–,> 100 µM and 28.5 µM
O=C(/C=C/c1ccccc1)CCN1CCCCC1,63.9 µM,> 100 µM,> 100 µM,63.1 µM,> 100 µM,> 100 µM,> 100 µM,> 100 µM,> 100 µM,> 100 µM,89.8 µM,> 100 µM,–,–
Cc1cn([C@H]2C[C@@H](N3C(=O)c4ccccc4C3=O)[C@@H](CO[Si](C)(C)C(C)(C)C)O2)c(=O)[nH]c1=O,> 100 µM,> 100 µM,> 100 µM,> 100 µM,> 100 µM,> 100 µM,> 100 µM,> 100 µM,> 100 µM,> 100 µM,> 100 µM,60.8 µM,–,–
O=C1/C(=C/c2ccc(Br)s2)NC(=S)N1CN1CCCCC1,> 100 µM,> 100 µM,> 100 µM,66.8 µM,23.8 µM,47.1 µM,> 100 µM,> 100 µM,> 100 µM,> 100 µM,> 100 µM,> 100 µM,–,–
COC(=O)C1CC2CC1C1C2SC(F)(F)C1(F)F (stereo not given),> 100 µM,> 100 µM,> 100 µM,> 100 µM,> 100 µM,> 100 µM,> 100 µM,> 100 µM,> 100 µM,> 100 µM,–,> 100 µM,–,–
COC(=O)c1sc(=S)sc1SCc1cccc(CSc2sc(=S)sc2C(=O)OC)c1,> 100 µM,> 100 µM,> 100 µM,> 100 µM,> 100 µM,> 100 µM,> 100 µM,> 100 µM,> 100 µM,> 100 µM,> 100 µM,26.6 µM,–,–
Cc1[nH]c(=O)c2oc3cc4ccccc4cc3c2c1C(=O)O,> 10 µM,> 10 µM,> 10 µM,–,–,> 10 µM,> 10 µM,> 10 µM,> 10 µM,> 10 µM,> 10 µM,> 10 µM,–,–
Cc1ccc2c(=O)cc(-c3cc(C)sc3C)[nH]c2n1,65.8 µM,> 100 µM,> 100 µM,> 77.6 µM,16.4 µM,> 86.3 µM,> 100 µM,> 100 µM,36.3 µM,7.15 µM,> 24 µM,> 29.9 µM,–,–
COc1cc(S(=O)(=O)Nc2nc(-c3ccc(N=Cc4ccccc4O)cc3)cs2)ccc1Cl,> 100 µM,> 100 µM,86.8 µM,> 100 µM,71.5 µM,> 100 µM,> 100 µM,> 100 µM,> 100 µM,> 100 µM,> 100 µM,> 100 µM,–,–
N/C(=N\N=C\c1nc2ccccc2o1)c1cnccn1,> 100 µM,> 100 µM,> 100 µM,> 100 µM,> 100 µM,> 100 µM,> 100 µM,> 100 µM,–,> 100 µM,> 100 µM,42.8 µM,–,–
N#CCc1nc(-c2cc3ccccc3oc2=O)cs1,> 100 µM,> 100 µM,> 100 µM,63.1 µM,64 µM,> 100 µM,> 100 µM,> 100 µM,> 100 µM,> 100 µM,–,99.7 µM,–,–
Cc1ccc2c(c1C)CC1(Cc3ccc(C)c(C)c3C1=O)C2=O (stereo not given),> 100 µM,> 100 µM,> 100 µM,> 100 µM,> 100 µM,> 100 µM,> 100 µM,> 100 µM,> 100 µM,> 100 µM,–,> 100 µM,–,–
Cc1nc2ccc(N=Nc3c(C)noc3C)cc2[nH]1,96.6 µM,> 100 µM,> 100 µM,58.5 µM,29.8 µM,69.9 µM,15.2 µM,> 100 µM,> 100 µM,58.4 µM,> 100 µM,32.9 µM,–,–
NCCc1ccc(S(=O)(=O)O)cc1[N+](=O)[O-],> 100 µM,> 100 µM,> 100 µM,> 32.4 µM,> 100 µM,> 100 µM,> 100 µM,> 100 µM,–,> 100 µM,> 100 µM,> 100 µM,–,–
Cc1cc2nnn(C3CCCCO3)c2cc1C (stereo not given),> 100 µM,> 100 µM,> 100 µM,> 100 µM,> 100 µM,> 100 µM,> 100 µM,> 100 µM,> 100 µM,> 100 µM,> 100 µM,> 100 µM,–,–
CC1C(OS(=O)(=O)c2ccc3[nH]c(=S)sc3c2)CC2C3(C)CCC2(C(C)C(=O)O)C(O)C13 (stereo not given),> 100 µM,27.1 µM,> 100 µM,> 100 µM,34.5 µM,64.8 µM,48.3 µM,> 100 µM,> 100 µM,> 100 µM,38.3 µM,–,–,–
Cc1nc2ccc(S(=O)(=O)O)cc2c(=O)n1-c1ccc(C(=O)NN2C(=O)C(Cl)C2c2cccs2)cc1 (stereo not given),45.1 µM,> 100 µM,35.3 µM,> 100 µM,> 100 µM,> 100 µM,> 100 µM,> 100 µM,> 100 µM,> 100 µM,> 100 µM,> 100 µM,–,–
CC(C)=CCC[C@@H](C)C1=C(N)C(O)=C(C)C(=O)C1=O,> 75 µM,> 75 µM,> 75 µM,> 67.5 µM,> 75 µM,> 75 µM,> 75 µM,> 75 µM,> 75 µM,> 75 µM,> 75 µM,> 75 µM,–,–
CC[C@@H]1CC[C@@H]2[C@H](CC[C@]3(C)[C@@H](O[N+](=O)[O-])CC[C@@H]23)[C@H]1C(C)=O,75.1 µM,> 100 µM,80.9 µM,> 100 µM,40.4 µM,> 100 µM,96.4 µM,76 µM,> 100 µM,> 100 µM,> 100 µM,> 100 µM,–,–
O=C(O)CCC(NC(=O)c1ccc(Nc2nc3ccc(C(F)(F)F)cc3nc2C(=O)O)cc1)C(=O)O (stereo not given),> 100 µM,> 100 µM,> 100 µM,> 100 µM,> 100 µM,> 100 µM,> 100 µM,–,> 100 µM,> 100 µM,> 100 µM,> 100 µM,–,–
